According to ChEMBL document CHEMBL6078723, “Novel steroidal β-carboline derivatives as promising antibacterial candidates against methicillin-resistant Staphylococcus aureus” (Eur J Med Chem, 2025):
Active and inactive are the calls of the source. No cut-off for these calls is given here.

Experiments:
[1] = tested on: Staphylococcus aureus; assay: Antibacterial activity against methicillin-resistant Staphylococcus aureus ATCC 33591 at pH 8 (reference value: 1 ug/ml); format: functional
[2] = tested on: Staphylococcus aureus; assay: Induction of bacterial regrowth of Staphylococcus aureus CGMCC1.8721 at 4 to 8 times MIC measured after 24 hrs by time kill assay; format: functional, organism-based
[3] = tested on: Staphylococcus aureus; assay: Antibacterial activity against Staphylococcus aureus CGMCC1.8721 in presence of phosphatidylcholine; format: functional, organism-based
[4] = tested on: Staphylococcus aureus; assay: Antibacterial activity against methicillin-resistant Staphylococcus aureus ATCC 43300 in presence of Na+ (reference value: 0.5 ug/ml); format: functional
[5] = tested on: Staphylococcus aureus; assay: Induction of morphological change in Staphylococcus aureus CGMCC1.8721 assessed as cell rupture at 4 times MIC by […] SEM analysis; format: functional, organism-based
[6] = tested on: Staphylococcus aureus; assay: Antibacterial activity against methicillin-resistant Staphylococcus aureus ATCC 33591 in presence of Na+ (reference value: 1 ug/ml); format: functional
[7] = tested on: Staphylococcus aureus; assay: Antibacterial activity against methicillin-resistant Staphylococcus aureus CGMCC1.12409 in presence of Fe3+ (reference value: 0.5 ug/ml); format: functional
[8] = tested on: Staphylococcus aureus; assay: Induction of cell membrane damage in Staphylococcus aureus CGMCC1.8721 assessed as red fluorescence at 4 times MIC by SYTO9/PI staining based CLSM analysis; format: functional, organism-based
[9] = tested on: HeLa; assay: Cytotoxicity against human HeLa cells at 40 uM by CCK8 assay relative to control; format: toxicity, cell-based
[10] = tested on: Staphylococcus aureus; assay: Antibacterial activity against methicillin-resistant Staphylococcus aureus CGMCC1.12409 at pH 6.5 (reference value: 0.5 ug/ml); format: functional
[11] = tested on: Staphylococcus aureus; assay: Induction of inner membrane permeability in Staphylococcus aureus CGMCC1.8721 assessed as increase in red fluorescence intensity by PI staining based analysis; format: functional, organism-based
[12] = tested on: Staphylococcus aureus; assay: Induction of morphological change in Staphylococcus aureus CGMCC1.8721 assessed as appearance of surface folds at MIC by […] SEM analysis; format: functional, organism-based
[13] = tested on: Staphylococcus aureus; assay: Antibacterial activity against Staphylococcus aureus CGMCC1.8721 in presence of Mg2+ (reference value: 0.5 ug/ml); format: functional
[14] = tested on: Staphylococcus aureus; assay: Antibacterial activity against Staphylococcus aureus CGMCC1.8721 at pH 8 (reference value: 0.5 ug/ml); format: functional
[15] = tested on: Staphylococcus aureus; assay: Antibacterial activity against methicillin-resistant Staphylococcus aureus ATCC 33591; format: functional
[16] = tested on: Staphylococcus aureus; assay: Antibacterial activity against methicillin-resistant Staphylococcus aureus ATCC 33591 in presence of Fe3+ (reference value: 1 ug/ml); format: functional
[17] = tested on: Staphylococcus aureus; assay: Antibacterial activity against methicillin-resistant Staphylococcus aureus CGMCC1.12409 at 37.5 degreeC (reference value: 0.5 ug/ml); format: functional
[18] = tested on: Staphylococcus aureus; assay: Antibacterial activity against methicillin-resistant Staphylococcus aureus CGMCC1.12409 infected in mouse model assessed as smooth dorsal skin at 10 mg/kg measured for 5 days; format: functional, organism-based; settings: route sc, time 5.0 day
[19] = tested on: Staphylococcus aureus; assay: Antibacterial activity against methicillin-resistant Staphylococcus aureus ATCC 43300 in presence of Fe3+ (reference value: 0.5 ug/ml); format: functional
[20] = tested on: Staphylococcus aureus; assay: Antibacterial activity against methicillin-resistant Staphylococcus aureus ATCC 33591 in presence of K+ (reference value: 1 ug/ml); format: functional
[21] = tested on: Staphylococcus aureus; assay: Induction of loss of membrane integrity in Staphylococcus aureus CGMCC1.8721 assessed as protein leakage; format: functional, organism-based
[22] = tested on: Staphylococcus aureus; assay: Antibacterial activity against Staphylococcus aureus CGMCC1.8721 in presence of LTA; format: functional, organism-based
[23] = tested on: Staphylococcus aureus; assay: Antibacterial activity against methicillin-resistant Staphylococcus aureus CGMCC1.12409 infected in mouse model assessed as reduction in neutrophils in skin tissues at 5 to 10 mg/kg measured for 5 days by H and E staining based analysis; format: functional, organism-based; settings: dose 5-10 mg/kg, time 5.0 day
[24] = tested on: Staphylococcus aureus; assay: Antibiofilm activity against Staphylococcus aureus CGMCC1.8721 at 4 times MIC by crystal violet staining based analysis relative to control; format: functional
[25] = tested on: Staphylococcus aureus; assay: Antibacterial activity against methicillin-resistant Staphylococcus aureus ATCC 43300 in presence of Ca2+ (reference value: 0.5 ug/ml); format: functional
[26] = tested on: Staphylococcus aureus; assay: Induction of morphological change in Staphylococcus aureus CGMCC1.8721 assessed as depression of cell surface at 4 times MIC by […] SEM analysis; format: functional, organism-based
[27] = tested on: Staphylococcus aureus; assay: Antibacterial activity against Staphylococcus aureus CGMCC1.8721 in presence of phosphatidylethanolamine; format: functional, organism-based
[28] = tested on: Staphylococcus aureus; assay: Induction of ROS accumulation in Staphylococcus aureus CGMCC1.8721 by DCFH-DA dye based analysis; format: functional, organism-based
[29] = tested on: Staphylococcus aureus; assay: Antibacterial activity against Staphylococcus aureus CGMCC1.8721 in presence of Zn2+ (reference value: 0.5 ug/ml); format: functional
[30] = tested on: Staphylococcus aureus; assay: Antibacterial activity against Staphylococcus aureus CGMCC1.8721 at 36.5 degreeC (reference value: 0.5 ug/ml); format: functional
[31] = tested on: Staphylococcus aureus; assay: Antibacterial activity against methicillin-resistant Staphylococcus aureus CGMCC1.12409 infected in mouse model assessed as reduction in skin lession in subcutaneous tissues at 10 mg/kg measured for 5 days; format: functional, organism-based; settings: time 5.0 day
[32] = tested on: Staphylococcus aureus; assay: Antibacterial activity against methicillin-resistant Staphylococcus aureus ATCC 33591 in presence of Zn2+ (reference value: 1 ug/ml); format: functional
[33] = Hemolytic activity in rabbit RBC; format: toxicity, cell-based, Oryctolagus cuniculus, Erythrocyte; settings: rabbit red blood cells
[34] = tested on: Staphylococcus aureus; assay: Antibacterial activity against methicillin-resistant Staphylococcus aureus ATCC 43300 in presence of Mg2+ (reference value: 0.5 ug/ml); format: functional
[35] = tested on: HEK-293T; assay: Cytotoxicity against HEK293T cells at 40 uM by CCK8 assay relative to control; format: toxicity, cell-based; settings: human
[36] = tested on: Staphylococcus aureus; assay: Bactericidal activity against Staphylococcus aureus CGMCC1.8721 at 4 to 8 times MIC incubated for 0.5 to 1 hr by time kill assay relative to control; format: functional; settings: time 0.5-1 hrs
[37] = tested on: Staphylococcus aureus; assay: Antibacterial activity against Staphylococcus aureus CGMCC1.8721 in presence of K+ (reference value: 0.5 ug/ml); format: functional
[38] = tested on: Staphylococcus aureus; assay: Antibacterial activity against methicillin-resistant Staphylococcus aureus CGMCC1.12409 in presence of Na+ (reference value: 0.5 ug/ml); format: functional
[39] = tested on: Staphylococcus aureus; assay: Antibacterial activity against methicillin-resistant Staphylococcus aureus CGMCC1.12409 infected in mouse model assessed as reduction in inflammation in skin tissues at 5 to 10 mg/kg measured for 5 days by H and E staining based analysis; format: functional, organism-based; settings: dose 5-10 mg/kg, time 5.0 day
[40] = tested on: Staphylococcus aureus; assay: Antibacterial activity against methicillin-resistant Staphylococcus aureus ATCC 43300 at 37.5 degreeC (reference value: 0.5 ug/ml); format: functional
[41] = tested on: Staphylococcus aureus; assay: Antibacterial activity against methicillin-resistant Staphylococcus aureus ATCC 33591 in presence of Mg2+ (reference value: 1 ug/ml); format: functional
[42] = tested on: Staphylococcus aureus; assay: Antibacterial activity against methicillin-resistant Staphylococcus aureus CGMCC1.12409 in presence of Zn2+ (reference value: 0.5 ug/ml); format: functional
[43] = tested on: Staphylococcus aureus; assay: Antibacterial activity against methicillin-resistant Staphylococcus aureus ATCC 43300 at pH 8 (reference value: 0.5 ug/ml); format: functional

Compound: COc1ccc2[nH]c3c(CC[C@H](C)[C@H]4CC[C@H]5[C@@H]6[C@H](O)C[C@@H]7C[C@H](O)CC[C@]7(C)[C@H]6C[C@H](O)[C@]45C)[n+](Cc4ccc(Cl)cc4)ccc3c2c1.[Br-]
- MIC [1]: 1 µg/mL
- Activity [2]: Not active; Compound Activity Was Higher Than That Of Vancomycin
- Activity [3]: Active
- MIC [4]: 0.5 µg/mL
- Activity [5]: Active
- MIC [6]: 1 µg/mL
- MIC [7]: 1 µg/mL
- Activity [8]: Active
- Activity [9]: Non-toxic
- MIC [10]: 1 µg/mL
- Activity [11]: Dose-dependent-effect
- Activity [12]: Active
- MIC [13]: 0.5 µg/mL
- MIC [14]: 0.5 µg/mL
- MIC [15]: 1 µg/mL
- MIC [16]: 1 µg/mL
- MIC [17]: 0.5 µg/mL
- Activity [18]: Active
- MIC [19]: 0.5 µg/mL
- MIC [20]: 1 µg/mL
- Activity [21]: Dose-dependent-effect
- Activity [22]: Active
- Activity [23]: Active
- Activity [24]: ~87%
- MIC [25]: 0.5 µg/mL
- Activity [26]: Active
- Activity [27]: Active
- Activity [28]: Dose-dependent-effect
- MIC [29]: 0.5 µg/mL
- MIC [30]: 0.5 µg/mL
- Activity [31]: Active
- MIC [32]: 1 µg/mL
- HC50 [33]: > 256 µg/mL
- MIC [34]: 0.5 µg/mL
- Activity [35]: Non-toxic
- Activity [36]: 100%
- MIC [37]: 0.5 µg/mL
- MIC [38]: 1 µg/mL
- Activity [39]: Active
- MIC [40]: 0.5 µg/mL
- MIC [41]: 1 µg/mL
- MIC [42]: 1 µg/mL
- MIC [43]: 0.5 µg/mL
